Measurements reported in patent US20100099640A1, “TISSUE DEGENERATION PROTECTION” (priority 2007, published 2010).

How the values were obtained:
[1] = tested on: mouse pancreatic islets, β-cell line INS-1; details: direct action on β-cells; cited from earlier work
3T3-L1 adipocytes = assay: Triglyceride (Oil red O) accumulation during differentiation of 3T3-L1 adipocytes; format: cell-based, mouse; details: for triglyceride accumulation in adipocytes: 50-micromolar (lowest concentration), added during the 7-days differentiation process; for lipid deposition (triglyceride accumulation) in adipocytes: 200-micromolar (4x higher concentration), added during differentiation, steviol dissolved with DMSO
Method: 3T3-L1 mouse preadipocytes were purchased from the American Type Culture Collection (ATCC). They are cultivated in DHG medium (Dulbecco's modified Eagle's medium+High Glucose 4.5 g/l, GibcoBRL) supplemented with 10% FCS (foetal calf serum, GibcoBRL) and incubated a 37 C+5% CO2 incubator in a humidified atmosphere. For pre-adipocyte differentiation, 3T3-L1 cells were seeded at 50% confluence 3 days before the beginning of the differentiation programme. Confluent cell monolayers (day 0) are switched for 48 h to media containing the adipogenic cocktail: “DHG-L1” medium (DHG that contains 1.5 g/l NaHCO3) supplemented with 10% FCS, 5 μg/ml insulin, 300 μM dibutyryl-cyclicAMP (dbcAMP) and 1 μM dexamethasone. The cells were then refeeded every other day with DHG-L1 containing 10% FCS and 5 μg/ml insulin. At the end, 80-90% of cells were differentiated. […]
To characterize the state of (de)differentiation obtained in the presence of the molecules of interest, triglycerides present in the cells were stained with Oil red O (a dye of the neutral lipids). The absorbance of cell monolayers at 490 nm was measured in a spectrophotometer.

[2] = tested on: atherosclerotic plaques of DKO mice; assay: Atherosclerosis: morphometric and immunohistochemical analysis of aortic root cross sections of DKO mice; format: in vivo, mouse; details: 12 weeks
Method: Homozygous LDL-receptor-knockout mice (LDLR^(−/−)), heterozygous ob/+, and C57BL6 mice were purchased from Jackson Laboratory, Bar Harbor, Me. LDLR^(−/−) mice were backcrossed into a C57BL6 background to the 10th generation. To obtain DKO mice with combined leptin deficiency (ob/ob) and LDL-receptor deficiency, LDLR^(−/−) and ob/+ mice were crossed. All offspring were genotyped by polymerase chain reaction (PCR) techniques. All mice were housed at 22° C. on a fixed 12/12-hour light/dark cycle. Experimental procedures in animals were performed in accordance with protocols approved by the Institutional Animal Care and Research Advisory Committee. All mice were fed standard chow containing 4% fat (Pavan Service). Food intake was ≈5.7 g/d. Mice (about 50 g) were treated with stevioside (N=14; 10 mg/kg), steviol (N=9; 5 mg/kg) or placebo (N=17) for 12 weeks between 12 and 24 weeks of age. Stevioside (Molecular weight: 804) was dissolved in water (1 mg/ml) and 500 μl of the solution was administered orally. Steviol (Molecular weight: 318) was dissolved in water containing 6% NaHCO3 (1 mg/ml) and 250 μl of the solution was administered orally.
The extent of atherosclerosis was determined by analysis of cross sections from the aortic root. Approximately ten 7-μm frozen sections per staining per animal were used for morphometric and immunohistochemical analysis. Total plaque areas were measured on hematoxylin and eosin stained sections. Lipids were stained with oil-red O, and macrophage areas were stained with an antibody against mouse Mac-3 antigen (Pharmingen), and oxidized LDL with the monoclonal antibody 4E6. Blinded analysis of positive immunostained sections was performed with the Quantimet600 image analyzer (Leica).

[3] = cited from earlier work
[4] = tested on: everted gastrointestinal sacs of rats and Caco-2 cell layers; details: free steviol formed in the colon; cited from earlier work
[5] = steviol 5 mg/kg vs stevioside 10 mg/kg orally
[6] = stevioside 10 mg/kg or steviol 5 mg/kg orally

Row | Compound | insulin secretion [1] | triglyceride accumulation in adipocytes (3T3-L1 adipocytes) | lipid deposition (triglyceride accumulation) in adipocytes (3T3-L1 adipocytes) | SMC content of plaques, compared to stevioside [2, 5] | plaque lipids, compared to stevioside [2, 5] | lipid deposition in plaques [2, 6] | macrophage deposition in plaques [2, 6] | oxLDL deposition in plaques [2, 6] | plaque volume [2, 6] | smooth muscle cell (SMC)-to-macrophage ratio (proxy for plaque stability) [2, 6] | transformation by human microsomes relative to rat microsomes ([3]; human vs rat liver microsomes) | transformation of steviol by human microsomes ([3]; in vitro incubation with human liver microsomes) | absorption of free steviol [4]
1 | C=C1C[C@@]23CC[C@H]4[C@@](C)(CCC[C@@]4(C)C(=O)O)[C@@H]2CC[C@]1(O)C3 [steviol, Kaur-16-en-18-oic acid, 13-hydroxy-, (4α)-] | stimulation of insulin secretion | did not significantly reduce | did not have an effect | increased somewhat more | decreased somewhat more | reducing | reducing | reducing | lowered | increased | about 4 times lower | very low | easily absorbed
2 | Kaur-16-en-18-oic acid, 13-[(O-b-D-glucopyranosyl-(1→2)-O-[b-D-glucopyranosyl-(1→3)]-b-D-glucopyranosyl)oxy]-, b-D-glucopyranosyl ester, (4a)- [rebaudioside] |  | did not significantly reduce | inhibited |  |  |  |  |  |  |  |  |  | 
3 | C=C1C[C@@]23CC[C@H]4[C@@](C)(CCC[C@@]4(C)C(=O)OC4OC(C(=O)O)C(O)C(O)C4O)[C@@H]2CC[C@]1(O)C3 (stereo partly drawn) [steviol glucuronide, steviol-19-O-β-D-glucuronide] |  | inhibited significantly |  |  |  |  |  |  |  |  |  |  | 
